Three compounds from patent US20060154907A1, “Method of treating hormonal deficiencies in women undergoing estrogen replacement therapy” (Barr Laboratories, Inc., priority 2000, published 2006) can be followed below.

The subject of data set [1] is uterine horns in mice. Kind of data set: Weight of uterine horns in ovariectomized mice: estrogen, testosterone or combination. As to conditions: daily injections 7 days, 10 μg/Kg of each hormone; for D Hs/BW (dry horns Rt + Lt / body weight) / Lt H D (left horn dry weight) / Rt H D (right horn dry weight): dried 90° C. 24 hrs. The text has this: Applicants performed a set of experiments to determine the effects of estrogen and testosterone on weight of uterine horns in mice.
(§1) The protocol employed in the experiment included taking ovariectomized female mice ordered from Charles River Laboratories, of which the females were 32-52 days old, after ovariectomy, and separating them into four groups. The first group of mice received daily injections of testosterone for 7 days. A second group of mice received daily injections of estradiol for 7 days. A third group of mice received daily injections of testosterone plus estradiol for 7 days. Finally, the mice in the fourth group received daily injections of a control vehicle for 7 days. All of the injections were given 1M at 10 AM, alternatively to the right and left buttock. The daily amount injected of the estradiol and/or testosterone was 10 μg/Kg of each hormone, delivered at a dose of 0.25 ml.
(§2) The injections were produced based upon the following protocols. The estradiol selected was the oil-dissolved 17β-estradiol from Sigma (17β-estradiol E-8875. The estradiol was prepared by dissolving 200 μg of the hormone in 0.25 ml ethanol for a ×1000 stock (0.8 mg/1 ml=×1000 stock). Next, 10 μl aliquots were dispensed into nine 15 ml conical plastic tubes and frozen. For each injection, one of the tubes was thawed, 9.99 ml saline was added and then mixed to obtain 10 ml of the solution at a level of 0.8 μg/1 ml. Then, 0.25 ml were injected into each animal.
The testosterone selected was testosterone enanthane from Bristol Myers Squib (Delatestryl™). The testosterone was prepared by aspirating […] from a bottle containing 200 mg/1 ml testosterone via a tuberculin syringe of 1.0 ml. Next, 24.9 ml of ethanol was poured into a 50 ml conical plastic tube. Then 0.1 ml of the testosterone was dissolved in the syringe with the 24.9 ml of ethanol. This produced a ×1000 stock of 0.8 mg/1 ml. Similar to the estradiol protocol, next, 10 μl aliquots were dispensed into nine 15 ml conical plastic tubes and frozen. For each injection, one of the tubes was thawed, 9.99 ml saline is added and then mixed to obtain 10 ml of the solution at a level of 0.8 μg/1 ml. Then, 0.25 ml were injected into each animal. The injections were based for a 20 gm animal. The dose injected per actual weight of the animal may be adjusted by varying the weight, i.e., may vary from 19 gm to 24 gm (0.238 ml to 0.3 ml).
After the seven days of injections, the mice were euthanized via injection from Lumina. The mice were then weighed. After midline laparotomy, 2 ml to 5 ml does of blood was obtained from the heart. The blood was allowed to clot and was then centrifuged and the resulting serum was collected and stored at −80° C. The uterine horns were then identified, transected from the level of the vagina till the ovary (without the ovary and without the parametrium), weighted (i.e., wet weight of Rt and Lt horn), and placed separately in a piece of silver foil paper, and baked in an oven at 90° C. for 24 hrs to obtain the dry weight of the horns.

Data set [2] concerns uterine horns in mice. Kind of data set: Weight of uterine horns in ovariectomized mice: estrogen, oxandrolone or combination. Conditions: second experiment (oxandrolone); for D Hs/BW (dry horns Rt + Lt / body weight) / Lt H D (left horn dry weight) / Rt H D (right horn dry weight): dried 90° C. 24 hrs; for W Hs/BW (wet horns Rt + Lt / body weight) / Lt H W (left horn wet weight) / Rt H W (right horn wet weight): daily injections 7 days.
Text: as §1, §2
A second experiment was performed using the protocols set above. The only change included replacing testosterone with oxandrolone. The oxandrolone was prepared by dissolving a 20 mg powder of the original vial in 1.0 ml of DMSO. 100 μl aliquots were then dispensed into 10 new vials (each containing now 2 mg/vial, or 20 μg/μl) and all vials, except one, were frozen at −20° C. The 9 frozen vials are referred to herein as “Original Stocks”.
Next, one of the Original Stock vials containing 100 μl of 20 μg/μl Oxandrolone was diluted to a 1:5 ratio in DMSO by adding 400 μl DMSO. […] 50 μl aliquots were then dispensed into 10 vials (each containing now 0.4 μg/μl, or 20 μg/50 μl) of which nine were frozen. The frozen vials from this part of the experiment are herein referred to as “Diluted Stocks”.
One Diluted Stock vial was taken and diluted in 24.95 ml saline to get a solution of 20 μg/25 ml oxandrolone, or 0.2 μg/0.25 ml. The 0.5 ml aliquots are then dispensed into 20 vials and frozen. The remaining 15 ml were discarded. On the day of injection, each one of the vials was thawed 0.25 ml were injected into each animal based upon a 20 gm animal. The dose injected may be adjusted per actual weight of the animal (may vary from 19 gm to 24 gm, 0.238 ml to 0.3 ml).
After the last day of injections, the mice were weighed and then euthanized in a CO2 chamber. Blood was obtained from the heart in an amount of 2-5 ml. Time was allotted to let it clot and then it was centrifuged and the serum was collected and stored at −80° C. The abdomen was opened by a longitudinal ventral incision. Then the uterine horns were identified and the right horn was transected from the level of the vagina until the ovary (thus, without the ovary and without the parametrium). This process was repeated for the left horn. Both horns were weighed to determine the wet weight of the horns. Then the horns were placed on silver foil paper and baked in an oven at 90° C. for 24 hrs. Then the dry weight of the horns was taken.

[3] abbreviates: individual animal, ovariectomized female mice.

Where “and” joins values, the source holds several entries; their conditions need not be identical. Equal entries are not always repeated.

Take `C[C@]12CC[C@@H]3c4ccc(O)cc4CC[C@H]3[C@@H]1CC[C@@H]2O` [E, 17β-estradiol]: in data set [1] (group mean), the “Lt H W (left horn wet weight)” value came to 20.0 mg, the “Rt H W (right horn wet weight)” value is on record as 19.5 mg, the “W Hs/BW (wet horns Rt + Lt / body weight)” value came to 1.82 mg/gm and the “D Hs/BW (dry horns Rt + Lt / body weight)” value is recorded as 0.27 mg/gm. Further, in data set [1] (group mean), the “Lt H D (left horn dry weight)” value was 2.9 mg and the “Rt H D (right horn dry weight)” value was 3.0 mg. For the same compound, in data set [1] (individual animal), the “D Hs/BW (dry horns Rt + Lt / body weight)” value was 0.28 mg/gm and 0.21 mg/gm and 0.38 mg/gm and 0.24 mg/gm and 0.22 mg/gm; the “Lt H D (left horn dry weight)” value is 2.9 mg and 2.2 mg and 4.2 mg and 2.6 mg and 2.4 mg; the “Rt H D (right horn dry weight)” value was 3.3 mg and 2.5 mg and 4.0 mg and 2.4 mg and 2.6 mg. Also, in data set [1] (setting [3]), the “Lt H W (left horn wet weight)” value is 21.5 mg and 18.0 mg and 24.2 mg and 19.5 mg and 16.7 mg; the “Rt H W (right horn wet weight)” value was 20.6 mg and 16.2 mg and 26.6 mg and 17.3 mg and 16.9 mg; the “W Hs/BW (wet horns Rt + Lt / body weight)” value is 1.92 mg/gm and 1.55 mg/gm and 2.37 mg/gm and 1.79 mg/gm and 1.47 mg/gm. In addition, in data set [2] (group mean), the “D Hs/BW (dry horns Rt + Lt / body weight)” value is on record as 0.66 mg/gm and the “W Hs/BW (wet horns Rt + Lt / body weight)” value is 3.63 mg/gm. Also, in data set [2] (individual animal), the “D Hs/BW (dry horns Rt + Lt / body weight)” value is 0.97 mg/gm and 0.60 mg/gm and 0.61 mg/gm and 0.49 mg/gm and 0.63 mg/gm; the “Lt H D (left horn dry weight)” value is 12 mg and 4.8 mg and 7.7 mg and 4.6 mg and 5 mg; the “Rt H D (right horn dry weight)” value is 9.9 mg and 7.3 mg and 4.7 mg and 6.5 mg and 8.0 mg; the “Lt H W (left horn wet weight)” value is 44.9 mg and 29.7 mg and 48.1 mg and 34.4 mg and 32.7 mg. In data set [2] (individual animal), the “Rt H W (right horn wet weight)” value is 46.7 mg and 41.2 mg and 30 mg and 35 mg and 44.2 mg; the “W Hs/BW (wet horns Rt + Lt / body weight)” value is 4.06 mg/gm and 3.52 mg/gm and 3.82 mg/gm and 3.05 mg/gm and 3.70 mg/gm.

Consider `C[C@]12COC(=O)C[C@@H]1CC[C@@H]1[C@@H]2CC[C@@]2(C)[C@H]1CC[C@]2(C)O` [Ox, oxandrolone], for which, in data set [2] (group mean), the “D Hs/BW (dry horns Rt + Lt / body weight)” value was found to be 0.35 mg/gm and the “W Hs/BW (wet horns Rt + Lt / body weight)” value is listed as 1.54 mg/gm. Also, in data set [2] (individual animal), the “D Hs/BW (dry horns Rt + Lt / body weight)” value was 0.26 mg/gm and 0.20 mg/gm and 0.76 mg/gm and 0.16 mg/gm and 0.37 mg/gm; the “Lt H D (left horn dry weight)” value is 2.3 mg and 2.2 mg and 5.5 mg and 1.4 mg and 4.3 mg; the “Rt H D (right horn dry weight)” value was 3.4 mg and 2.0 mg and 12.5 mg and 2.2 mg and 4.2 mg; the “Lt H W (left horn wet weight)” value is 14.4 mg and 13.8 mg and 22.9 mg and 11.3 mg and 19.4 mg. In data set [2] (individual animal), the “Rt H W (right horn wet weight)” value was 16.5 mg and 12.0 mg and 35.7 mg and 13.2 mg and 14.6 mg; the “W Hs/BW (wet horns Rt + Lt / body weight)” value is 1.40 mg/gm and 1.22 mg/gm and 2.47 mg/gm and 1.11 mg/gm and 1.50 mg/gm.

In the case of `CCCCCCC(=O)O[C@H]1CC[C@H]2[C@@H]3CCC4=CC(=O)CC[C@]4(C)[C@H]3CC[C@]12C` [T, testosterone enanthane], in data set [1] (group mean), the “Lt H W (left horn wet weight)” value stood at 12.6 mg, the “Rt H W (right horn wet weight)” value came out at 14.0 mg, the “W Hs/BW (wet horns Rt + Lt / body weight)” value was 1.21 mg/gm and the “D Hs/BW (dry horns Rt + Lt / body weight)” value is reported as 0.27 mg/gm. Also, in data set [1] (group mean), the “Lt H D (left horn dry weight)” value amounted to 3.2 mg and the “Rt H D (right horn dry weight)” value is 2.8 mg. In data set [1] (individual animal), the “D Hs/BW (dry horns Rt + Lt / body weight)” value is 0.57 mg/gm and 0.25 mg/gm and 0.16 mg/gm and 0.09 mg/gm and 0.31 mg/gm; the “Lt H D (left horn dry weight)” value is 8.2 mg and 4.3 mg and 0.8 mg and 0.9 mg and 1.9 mg; the “Rt H D (right horn dry weight)” value is 4.3 mg and 1.1 mg (2×) and 2.5 mg and 4.8 mg. For the same compound, in data set [1] (setting [3]), the “Lt H W (left horn wet weight)” value was 21.3 mg and 15.6 mg and 3.7 mg and 8.4 mg and 13.9 mg; the “Rt H W (right horn wet weight)” value was 16.2 mg and 11.7 mg and 13.5 mg and 8.4 mg and 20.1 mg; the “W Hs/BW (wet horns Rt + Lt / body weight)” value is 1.72 mg/gm and 1.26 mg/gm and 0.81 mg/gm and 0.72 mg/gm and 1.55 mg/gm.
